Experimental data reported in patent US11919878B1, “9-(2-hydroxypyridin-3-yl)-10-(2-phenylethyl)-3,3,6,6-tetramethyl-3,4,6,7,9,10-hexahydroacridine1,8(2H,5H)-dione as an antimicrobial compound” (KING FAISAL UNIVERSITY, priority 2023, dated 2024).

Tests used:
Assay in all cases: Antimicrobial screening, agar dilution
Type in all cases: cell-based
Conditions in all cases: after 10, 20, 40 and 60 minutes at all dilutions 1:100, 1:200, 1:400, 1:800
Candida albicans = test system: Candida albicans
Protocol: (§1) The antibacterial properties of the synthesized compound compound (9-(2-hydroxypyridin-3-yl)-10-(2-phenylethyl)-3,3,6,6-tetramethyl-3,4,6,7,9,10-hexahydroacridine1,8(2H,5H)-dione) were studied by the method of agar dilution. Test solutions of each compound was prepared in concentration of 1% using dimethylformamide as a solvent then they are diluted in physiological solution to obtain the final experimental dilutions 1:100, 1:200, 1:400, 1:800. The effect of these substances are compared with furacillin in a controllable study. The testing microbes used were gram positive bacteria Staphylococcus aureus, gram negative bacteria Pseudomonas aeruginosa and Escherichia coli and Candida albicans fungus. The experiments used for this survey were meat-pentonlu agar (EPA) for cultivation of bacteria and Saburo enviromnent for the fungus. Each experiment used 1 mL of test solution on each plate […]. Two drops of emulsified with microbes feel were added. All experimental samples were taken from the agar after 10, 20, 40, 60 minutes in the environment on the basis of Patrk planted. The bacteria were cultivated at a temperature: of 37° C for 1 day and the mushroom was kept in a thermostat for […] at a temperature of 28° C. Then results were checked.

Escherichia coli = test system: Escherichia coli
Protocol: as §1

Pseudomonas aeruginosa = test system: Pseudomonas aeruginosa
Protocol: as §1

Staphylococcus aureus = test system: Staphylococcus aureus
Protocol: as §1

Measured: inhibition activity (in words)

CC1(C)CC(=O)C2=C(C1)N(CCc1ccccc1)C1=C(C(=O)CC(C)(C)C1)C2c1cccnc1O [9-(2-hydroxypyridin-3-yl)-10-(2-phenylethyl)-3,3,6,6-tetramethyl-3,4,6,7,9,10-hexahydroacridine1,8(2H,5H)-dione]
highest inhibition activity: all assays above
